Patent US8377961B2, “Cyclic-alkylamine derivatives as inhibitors of the interaction between MDM2 and P53” (Janssen Pharmaceutica N.V., priority 2006, dated 2013)
Read-outs that look alike come from different tables or passages of the source.

Assays:
p53 in A2780 cells = assay: p53 ELISA (capacity to preserve p53 in A2780 cells); type: cell-based; conditions: lowest dose giving at least 140% of the value for p53 present in the control; A2780 cells treated with compound for 16 hours
Method: The capacity of the compounds to preserve p53 in A2780 cells was measured with the p53 enzyme linked immunosorbent assay. The p53 assay is a “sandwich” enzyme immunoassay employing two polyclonal antibodies. A polyclonal antibody, specific for the p53 protein, has been immobilized onto the surface of the plastic wells. Any p53 present in the sample to be assayed will bind to the capture antibody. The biotinylated detector polyclonal antibody also recognizes p53 protein, and will bind to any p53, which has been retained by the capture antibody. The detector antibody, in turn, is bond by horseradish peroxidase-conjugated streptavidin. The horseradish peroxidase catalyses the conversion of the chromogenic substrate o-phenylene diamine, the intensity of which is proportional to the amount of p53 protein bond to the plate. The colored reaction product is quantified using a spectrophotometer. Quantitation is achieved by the construction of a standard curve using known concentrations of purified recombinant HIS tagged p53 protein (see example C.1.).
A2780 cells (ATCC) were cultivated in RPMI 1640 supplemented with 10% fetal calf serum (FCS), 2 mM L-glutamine and gentamycin at 37° C. in a humidified incubator with 5% CO2.
A2780 cells were seeded at 20.000 cells per well in a 96 well plate, cultured for 24 hours and treated with compound for 16 hours at 37° C. in a humidified incubator. After incubation, the cells were washed once with phosphate-buffered saline and 30 μl, per well, low salt RIPA buffer (20 mM tris, pH7.0, 0.5 mM EDTA, 1% Nonidet P40, 0.5% DOC, 0.05% SDS, 1 mM PMSF, 1 μg/ml aprotinin and 0.5 μ/ml leupeptin) was added. Plates were placed on ice for 30 minutes to complete the lysis. p53 protein was detected in de lysates by using the sandwich ELISA, described below.
High binding polystyrene EIA/RIA 96 well plates (Costar 9018) were coated with the capture antibody pAb1801 (Abcam ab28-100) at a concentration of 1 μg/ml in coating buffer (0.1 M NaHCO3 pH8.2), 50 μl per well. The antibody was allowed to adhere overnight at 4° C. Coated plates were washed once with phosphate-buffered saline (PBS)/0.05% Tween 20 and 300 μl of blocking buffer (PBS, 1% bovine serum albumins (BSA)) was added, for an incubation period of 2 hours at room temperature. Dilutions of purified recombinant HIS tagged p53 protein, ranging from 3-200 ng/ml, were made in blocking buffer and used as standards.
Plates were washed twice with PBS/0.05% Tween 20 and blocking buffer or standards were added at 80 μl/well. To the standards, 20 μl of lysis buffer was added. The samples were added to the other wells at 20 μl lysate/well. After an overnight incubation at 4° C., plates were washed twice with PBS/0.05% Tween 20. Aliquots of 100 μl secondary polyclonal antibody p53(FL-393) (Tebubio, sc-6243) at a concentration of 1 μg/ml in blocking buffer were added to each well and allowed to adhere for 2 hours at room temperature. Plates were washed three times with PBS/0.05% Tween 20. Detection antibody anti-rabbit HRP (sc-2004, Tebubio) at 0.04 μg/ml in PBS/1% BSA was added and incubated for 1 hour at room temperature. Plates were washed three times with PBS/0.05% Tween 20 and 100 μl of substrate buffer was added (substrate buffer was prepared shortly before use by adding 1 tablet of 10 mg o-phenylene diamine (OPD) from Sigma and 125 μl 3% H2O2 to 25 ml OPD buffer: 35 mM citric acid, 66 mM Na2HPO4, pH5.6). After 5 to 10 minutes, colour reaction was stopped by adding 50 μl stop buffer (1 M H2SO4) per well. The absorbance at dual wavelengths of 490/655 nm was measured using a Biorad micro plate reader and the results were then analyzed.
For each experiment, controls (containing no drug) and a blank incubation (containing no cells or drugs) were run in parallel. The blank value was subtracted from all control and sample values. For each sample, the value of p53 (in absorbance units) was expressed as the percentage of the value for p53 present in the control. […]

U87MG cells = assay: Proliferation assay (MTT-based) on U87MG tumour cells; type: cell-based; conditions: Homo sapiens, U-87 MG, 96 h, 4 days of incubation
Method: Cellular activity of the compounds of formula (I) was determined on U87MG tumour cells using a colorimetric assay for cell toxicity or survival (see example C.2).
U87MG cells are human glioblastoma cells with wild type p53. In this cell line MDM2 tightly controls p53 expression.
All compounds tested were dissolved in DMSO and further dilutions were made in culture medium. Final DMSO concentrations never exceeded 0.1% (v/v) in cell proliferation assays. Controls contained U87MG cells and DMSO without compound and blanks contained DMSO but no cells.
U87MG cells were seeded in 96-well cell culture plates at 3000 cells/well/100 μl. 24 hours later, medium was changed and compound and/or solvent were added to a final volume of 200 μl. Following 4 days of incubation, medium was replaced by 200 μl fresh medium and cell growth was assessed using a MTT-based assay. Therefore, 25 μl of the MTT solution (0.5% MTT research grade from Serva in phosphate-buffered saline) was added to each well and the cells were further incubated for 2 hours at 37° C. The medium was then carefully aspirated and the blue MTT-formazan product was dissolved by adding to each well 25 μl 0.1M glycin and 100 μl DMSO. The plates were shaken for another 10 min on a micro plate shaker before reading absorbance at 540 nm by a Biorad micro plate reader.
Within an experiment, the results for each experimental condition are the mean of 3 replicate wells. For initial screening purposes, compounds were tested at a single fixed concentration of 10^−5 M. For active compounds, the experiments were repeated to establish full concentration-response curves. For each experiment, controls (containing no drug) and a blank incubation (containing no cells or drugs) were run in parallel. The blank value was subtracted from all control and sample values. For each sample, the mean value for cell growth (in absorbance units) was expressed as a percentage of the mean value for cell growth of the control. When appropriate, IC50-values (concentration of the drug, needed to reduce cell growth to 50% of the control) were computed using probit analysis for graded data (Finney, D. J., Probit Analyses, 2nd Ed. Chapter 10, Graded Responses, Cambridge University Press, Cambridge 1962). Herein the effects of test compounds are expressed as pIC50 (the negative log value of the IC50-value) (see table F-2).
In some of the experiments the proliferation assay was adapted for and used in 384-well culture plates (see table F-2).

[1] = 96-well plates, read-out: cell proliferation pIC50 96 well (converted)

SMILES	A2780 p53-elisa LAD (p53 in A2780 cells)	IC50 (U87MG cells; [1])	IC50 (U87MG cells; 384-well culture plates, read-out: cell proliferation pIC50 384 well (converted))
c1ccc2c(CCNc3ccc4c(c3)CCN4c3ccncc3)c[nH]c2c1 [Compound 1]	0.1 µM	10 nM	–
c1ccc2c(N3CCc4cc(NCCc5c[nH]c6ccccc56)ccc43)ccnc2c1 [Compound 2]	1 µM	1700 nM	–
COC(=O)c1cc(N2CCc3cc(NCCc4c[nH]c5ccccc45)ccc32)ccn1 [Compound 3]	1 µM	4170 nM	–
OCc1cc(N2CCc3cc(NCCc4c[nH]c5ccccc45)ccc32)ccn1 [Compound 4]	0.3 µM	158 nM	–
OC1CCc2c(N3CCc4cc(NCCc5c[nH]c6ccccc56)ccc43)ccnc21 (stereo not drawn) [Compound 5]	0.3 µM	295 nM	–
CC1(C)CN(c2ccncc2)c2ccc(NCCc3c[nH]c4ccccc34)cc21 [Compound 6]	3 µM	–	295 nM
